Test results as given in patent US6821993B1, “Triazepine derivatives as neurotrophic agents” (Ortho-McNeil Pharmaceutical, Inc., priority 2001, dated 2004).

How the values were obtained:
[1] = test system: M17 human neuroblastoma cells; assay: Neurite outgrowth assay in human M17 neuroblastoma cells; assay type: cell-based; conditions: MAP-2 immunofluorescence
Description: M17 human neuroblastoma cells were cultured in 1:1 ratio of EMEM and Ham's F12 with 1×NEAA and 10% FBS. The culture media contained 1×PSN antibiotic and was exchanged every other day, and the cells were passed in log phase near confluence.
(§1) Cultures were incubated with normal horse serum (1:50; Vector Labs) or about 20 min, rinsed and then incubated with primary antibody, microtubule associated-protein 2 (anti-mouse MAP-2; 1:1000; Chemicon) for about 2 h at about RT. Following primary antibody, cultures were rinsed and incubated with fluorescein anti-mouse IgG (rat absorbed; 1:50; Vector Labs) for about 1 h. After fluorescein incubation, the cultures were rinsed and read in PBS on a fluorescent plate reader (excitation: 485 nm; emission: 530 nm). A compound was regarded as active if the neurite outgrowth response is greater than the mean DMSO-treated control response on the same plate. The response to test compound was reported as percent of DMSO-treated control. The signal-to-noise separation is consistent: the fluorescence from DMSO control wells is at least twofold greater than blank wells.

[2] = test system: Dorsal Root Ganglion (DRG); assay: Dorsal Root Ganglion (DRG) culture neurite outgrowth; assay type: cell-based, rat; conditions: neurite outgrowth from DRG of newborn or 1-day-old CD rats; test compound 50-250 nM; examined on days 1-5
Description: DRG were dissected from newborn or 1-day-old CD rats and placed into PBS on ice. After rinsing twice with sterile plating medium, DRG were transferred to empty wells of a 6-well plate coated with polyornithine/laminin (Becton Dickinson Labware) using #7 curved forceps. Three ml/well of plating medium were then added very gently, so as not to disturb the DRG plating medium is Leibovitz's L-15 medium (Gibco), plus 0.6% glucose, 33 mM KCl, 10% FCS, 10 mM Hepes and penicillin/streptomycin/glutamine. After overnight incubation at about 37° C. in 5% CO2, this medium was replaced with 3 mL/well of assay medium [Leibovitz's L-15 medium plus 0.6% glucose, 1% FCS, 1% N-2 supplement (Gibco), 10 μM ara-C, 10 mM Hepes, and penicillin/streptomycin/glutamine] containing either vehicle (DMSO, 1/200,000), positive control (2-4 ng/mL NGF) or test compound (50-250 nM). All media were prepared fresh daily. DRG were microscopically examined for neurite outgrowth on days 1-5.

[3] = test system: Primary Rat Hippocampal Cells; assay: Neurite outgrowth assay in primary rat hippocampal cells; assay type: cell-based; conditions: MAP-2 immunofluorescence, embryonic day 18 rat hippocampal cells, 7 days in culture
Description: Hippocampal cells were dissected from the brains of embryonic day 18 rat pups and dissociated with trypsin (1 mg/mL) and trituration. Cells were seeded at 30,000 cells/well in 96-well plates filled with 100 μL MEM and 10% FBS. At 7 days in culture, cells were fixed with 4% paraformaldehyde and immuno-fluorescence is performed.
as §1

## CCC(C)(C)C1=NNC(=O)[C@@H]2CCCN2C1=O [(1), 1H-pyrrolo[2,1-d][1,2,5]triazepine-1,5(2H)-dione, 4-(1,1-dimethylpropyl)-7,8,9,9a-tetrahydro-, (9aS)-]
[1]
  M17 Cell Response: 115% of DMSO-treated control
[2]
  DRG: + (An experiment was considered positive (+) if the instant compound induced neurites of ≧1 diameter of the DRG)
[3]
  Rat Hippocampal Cell Response: 123% of DMSO-treated control

## CCC(C)(C)C1=NN(CCCc2ccccc2)C(=O)[C@@H]2CCCN2C1=O [(2), 1H-pyrrolo[2,1-d][1,2,5]triazepine-1,5(2H)-dione, 4-(1,1-dimethylpropyl)-7,8,9,9a-tetrahydro-2-(3-phenylpropyl)-, (9aS)-]
[1]
  M17 Cell Response: <100% of DMSO-treated control
[3]
  Rat Hippocampal Cell Response: <100% of DMSO-treated control

## CCC(C)(C)C1=NN(CCCc2cccnc2)C(=O)[C@@H]2CCCN2C1=O [(3), 1H-pyrrolo[2,1-d][1,2,5]triazepine-1.5(2H)-dione, 4-(1,1-dimethylpropyl)-7,8,9,9a-tetrahydro-2-[3-(3-pyridinyl)propyl]-, (9aS)-]
[1]
  M17 Cell Response: <100% of DMSO-treated control
[3]
  Rat Hippocampal Cell Response: 145% of DMSO-treated control

## CCC(C)(C)C1=NNC(=O)C2CCCCN2C1=O (stereo not shown) [(4)]
[1]
  M17 Cell Response: <100% of DMSO-treated control
[3]
  Rat Hippocampal Cell Response: 140% of DMSO-treated control

## O=C1NN=C(c2cccs2)C(=O)N2CSC[C@@H]12 [(5), 1H,7H-thiazolo[4,3-d][1,2,5]triazepine-1,5(2H)-dione, 9,9a-dihydro-4-(2-thienyl)-, (9aR)-]
[1]
  M17 Cell Response: <100% of DMSO-treated control
[3]
  Rat Hippocampal Cell Response: 105% of DMSO-treated control

## O=C1[C@@H]2CSCN2C(=O)C(c2cccs2)=NN1CCC(c1ccccc1)c1ccccc1 [(6), 1H,7H-thiazolo[4,3-d][1,2,5]triazepine-1,5(2H)-dione, 2-(3,3-diphenylpropyl)-9,9a-dihydro-4-(2-thienyl)-, (9aR)-]
[1]
  M17 Cell Response: <100% of DMSO-treated control
[3]
  Rat Hippocampal Cell Response: 105% of DMSO-treated control
